According to patent publication US20100204129A1, “USE OF A PEPTIDE AS A THERAPEUTIC AGENT” (priority 2008, published 2010):
Non-standard residues stand in square brackets, D forms with d. Residues, ends and D or L forms follow the SMILES beside them.

Assays:
A549 cells [1] = test: Propidium iodide cell cycle assay; assay type: cell-based, human; conditions: peptide 10 micrograms per ml, 24 hours, FACS
From the text: Human A549 cells (carcinomic human alveolar basal epithelial cells) were utilized in the experiments employing the Propidium iodide cell cycle assay. The eukaryotic cell cycle is a series of events that take place in a cell leading to its replication. The regulation of the cell cycle involves steps crucial to the cell, including detecting and repairing genetic damage, and provision of various checks to prevent uncontrolled cell division. The molecular events that control the cell cycle are ordered and directional; that is, each process occurs in a sequential fashion. The cell cycle consists of four distinct phases: G1 phase, S phase, G2 phase (collectively known as interphase) and M phase. M phase is itself composed of two tightly coupled processes: mitosis, in which the cell's chromosomes are divided between the two daughter cells, and cytokinesis, in which the cell's cytoplasm divides forming distinct cells. Activation of each phase is dependent on the proper progression and completion of the previous one. Cells that have temporarily or reversibly stopped dividing are said to have entered a state of quiescence called Go phase. The relatively brief M phase consists of nuclear division and cytoplasmic division. The first phase within interphase, from the end of the previous M phase till the beginning of DNA synthesis is called G1 (G indicating gap or growth). During this phase the biosynthetic activities of the cell resume at a high rate. This phase is marked by synthesis of various enzymes that are required in S phase, mainly those needed for DNA replication. The ensuing S phase starts when DNA synthesis commences; when it is complete, all of the chromosomes have been replicated. The cell then enters the G2 phase, which lasts until the cell enters mitosis. Significant protein synthesis occurs during this phase, mainly involving the production of microtubules, which are required during the process of mitosis. […]
Propidium iodide is an intercalating agent and a fluorescent molecule that can be used to stain DNA. […] After incubation for 40 min at 37° C., cells were analyzed in the FACS.

[2] = system: Human Peripheral Blood Mononuclear Cells (PBMC); test: B cell proliferation assay (SAC plus Interleukin-2, 3H-thymidine); assay type: cell-based; conditions: peptide 10 micrograms per ml, 3H-thymidine incorporation
Method: Human Peripheral Blood Mononuclear Cells (PBMC) were obtained from normal human donors. The B cell proliferation was induced by stimulation of the cells with the B cell mitogen Staphylococcus aureus Cowans I (SAC) plus Interleukin-2, either in the absence (positive proliferation control), or in the presence of test peptide—10 micrograms per ml—to examine their effects on the B cell response. 10^5/well PBMC were plated in 96-well microtiter plates and assayed in duplicate with the peptide. Cell cultures were incubated at 37° C. for 3 days in a 5% CO2 incubator and were thereafter pulsed with 1 microCi/well ^3H-thymidine for additional 12 hours of culture. At the end of incubation time, the plates were harvested and the cells counted by liquid scintillation for the incorporation of ^3H-thymidine as a measure of B cell proliferation.

A549 cells [3] = test: Apoptosis induction assay (Annexin-5); assay type: cell-based, human; conditions: apoptosis induction in A549 cells, 24 hours exposure
From the text: Human A549 cells (carcinomic human alveolar basal epithelial cells) were utilized in the experiments employing the Annexin-5 apoptosis assay. Annexin-5 is a member of a highly conserved protein family that binds acidic phospholipids in a calcium-dependent manner. […] Phosphatidylserine is translocated from the inner side of the plasma membrane to the outer layer when cells undergo death by apoptosis or cell necrosis and serves as a signal by which cell destined for death are recognized by phagocytes. Test peptide—[…]—were exposed for 24 hours to the A549 cells before they were analyzed for signs of apoptosis.

[4] = system: Human Peripheral Blood Mononuclear Cells (PBMC); test: T cell proliferation assay (PHA, 3H-thymidine); assay type: cell-based; conditions: peptide 10 micrograms per ml, 3H-thymidine incorporation
Method: Human Peripheral Blood Mononuclear Cells (PBMC) were obtained from normal human donors. The T cell proliferation was induced by stimulation of the cells with the T cell mitogen phytohemagglutinin (PHA), either in the absence (positive proliferation control), or in the presence of test peptide—10 micrograms per ml—to examine their effects on the T cell proliferating response. 10^5/well PBMC were plated in 96-well microtiter plates and assayed in duplicate with the peptide. Cell cultures were incubated at 37° C. for 3 days in a 5% CO2 incubator and were thereafter pulsed with 1 microCi/well ^3H-thymidine for additional 12 hours of culture. At the end of incubation time, the plates were harvested and the cells counted by liquid scintillation for the incorporation of ^3H-thymidine as a measure of T cell proliferation.

A549 cells [5] = test: Apoptosis prevention assay (C2 ceramide, Annexin-5); assay type: cell-based, human; conditions: A549 cells pretreated 30 min with peptide 10 micrograms per ml, then C2 ceramide
From the text: Human A549 cells (carcinomic human alveolar basal epithelial cells) were utilized in the experiments employing the Annexin-5 apoptosis assay. Annexin-5 is a member of a highly conserved protein family that binds acidic phospholipids in a calcium-dependent manner. […] Phosphatidylserine is translocated from the inner side of the plasma membrane to the outer layer when cells undergo death by apoptosis or cell necrosis and serves as a signal by which cell destined for death are recognized by phagocytes. A549 cells were pretreated for 30 min with test peptide—10 micrograms per ml—followed by the exposure to C2 ceramide. Ceramide mediates cell apoptosis through the activation of the mitogen activating protein kinase (MAPK) and the stress activated kinase (JNK/SAPK). C2 ceramide is a synthetic, membrane soluble analog of ceramide.

CC(C)C[C@H](NC(=O)[C@H](CC(C)C)NC(=O)[C@@H](Cc1c[nH]c2ccccc12)NC(=O)[C@H](Cc1ccccc1)NC(=O)[C@@H](Cc1c[nH]c2ccccc12)NC(=O)[C@H](CCC(N)=O)NC(=O)[C@H](CCC(N)=O)NC(=O)[C@@H]1CCCN1C(=O)[C@H](CCCCN)NC(=O)[C@@H]1CCCN1C(=O)[C@@H](CCCNC(=N)N)NC(=O)[C@@H]1CCCN1C(=O)CNC(=O)[C@H](CC(C)C)NC(=O)[C@H](CC(C)C)NC(=O)[C@H](Cc1ccc(O)cc1)NC(=O)CNC(=O)[C@H](C)NC(=O)[C@H](CO)NC(=O)[C@H](CC(N)=O)NC(=O)[C@H](CC(C)C)NC(=O)[C@@H](NC(=O)[C@H](Cc1c[nH]c2ccccc12)NC(=O)CN)[C@@H](C)O)C(N)=O [Spantide-I, Gly-Trp-Thr-Leu-Asn-Ser-Ala-Gly-Tyr-Leu-Leu-Gly-Pro-D-Arg-Pro-Lys-Pro-Gln-Gln-D-Trp-Phe-D-Trp-Leu-Leu-NH2] (H-GWTLNSAGYLLGP[dR]PKPQQ[dW]F[dW]LL-NH2)
Cell cycle analysis G0/G1 (A549 cells [1]): 61.6 | Cell cycle analysis G2/M (A549 cells [1]): 7.7 | Cell cycle analysis S (A549 cells [1]): 30.7 | % of SAC/IL2 induced control [2]: 106.6% | % of induction (A549 cells [3]): 1.4% | % of PHA induced control [4]: 96.3% | % prevention of ceramide induced apoptosis (A549 cells [5]): −20.5%
